CN(C)NC(=O)CCC(=O)O
solubility (mole fraction)
Details | 283.15 K | 288.15 K | 293.15 K | 298.15 K | 303.15 K | 308.15 K | 313.15 K | 318.15 K | 323.15 K
in 2-butoxyethanol | 0.000247 | 0.000346 | 0.000471 | 0.000632 | 0.000905 | 0.00126 | 0.00162 | 0.00213 | 0.00278
in 2-ethoxyethanol | 0.00176 | 0.00228 | 0.00291 | 0.00382 | 0.00492 | 0.00621 | 0.00767 | 0.00954 | 0.012
in 2-methoxyethanol | 0.00398 | 0.00519 | 0.00634 | 0.00784 | 0.0096 | 0.0116 | 0.014 | 0.0169 | 0.0203
in 2-propoxyethanol | 0.000405 | 0.000617 | 0.000794 | 0.00108 | 0.00144 | 0.00184 | 0.00233 | 0.00304 | 0.00393
in DMF | 0.0207 | 0.0245 | 0.0293 | 0.0329 | 0.0388 | 0.0449 | 0.0503 | 0.0568 | 0.0645
in NMP | 0.037 | 0.042 | 0.0481 | 0.0552 | 0.063 | 0.0714 | 0.0813 | 0.09 | 0.1
in acetonitrile | 0.000172 | 0.000226 | 0.000296 | 0.000386 | 0.000503 | 0.000653 | 0.000846 | 0.00109 | 0.00141
in ethanol | 0.00275 | 0.00354 | 0.00437 | 0.00551 | 0.0069 | 0.00848 | 0.0102 | 0.0128 | 0.0164
in isopropanol | 0.000326 | 0.00048 | 0.000752 | 0.0011 | 0.00159 | 0.0022 | 0.00302 | 0.00433 | 0.00579
in methanol | 0.00823 | 0.0097 | 0.0116 | 0.014 | 0.0167 | 0.0196 | 0.0227 | 0.026 | 0.0301
in n-pentanol | 0.000149 | 0.000191 | 0.00026 | 0.000344 | 0.000477 | 0.000634 | 0.000821 | 0.00109 | 0.00145
in n-propanol | 0.000944 | 0.00121 | 0.00161 | 0.00217 | 0.00285 | 0.00367 | 0.00471 | 0.00615 | 0.00768
